Values of other authors in US20260077140A1, “METERED DOSE INHALER FOR IPRATROPIUM BROMIDE SOLUTION” (Glenmark Pharmaceuticals Limited, priority 2024, published 2026).
Like-named read-outs stand apart in the source and are kept apart here.

Settings: aerosol solution in HFA-134(a) and about 35% ethanol, stored at 50° C.

Structure (SMILES): CC(C)[N+]1(C)[C@@H]2CC[C@H]1CC(OC(=O)C(CO)c1ccccc1)C2.[Br-] (some centres unmarked) [ipratropium bromide]
- decomposition of the ipratropium bromide: significant decomposition
- decomposition of the ipratropium bromide (addition of 1% water): reduced the decomposition due to dehydration
